Assay results taken from patent US10766865B2, “PKM2 modulators and methods for their use” (TOLERO PHARMACEUTICALS, INC., priority 2012, dated 2020).
Read-outs that look alike come from different tables or passages of the source.

Molecular target: PKM2 (Homo sapiens, UniProt P14618)
Assay: PKM2 Biochemical Assay
Details: for Max. Resp.: % maximum response in a biochemical assay as compared with Fructose 1,6-bisphosphate

Chain of PKM2 (P14618 whole entry): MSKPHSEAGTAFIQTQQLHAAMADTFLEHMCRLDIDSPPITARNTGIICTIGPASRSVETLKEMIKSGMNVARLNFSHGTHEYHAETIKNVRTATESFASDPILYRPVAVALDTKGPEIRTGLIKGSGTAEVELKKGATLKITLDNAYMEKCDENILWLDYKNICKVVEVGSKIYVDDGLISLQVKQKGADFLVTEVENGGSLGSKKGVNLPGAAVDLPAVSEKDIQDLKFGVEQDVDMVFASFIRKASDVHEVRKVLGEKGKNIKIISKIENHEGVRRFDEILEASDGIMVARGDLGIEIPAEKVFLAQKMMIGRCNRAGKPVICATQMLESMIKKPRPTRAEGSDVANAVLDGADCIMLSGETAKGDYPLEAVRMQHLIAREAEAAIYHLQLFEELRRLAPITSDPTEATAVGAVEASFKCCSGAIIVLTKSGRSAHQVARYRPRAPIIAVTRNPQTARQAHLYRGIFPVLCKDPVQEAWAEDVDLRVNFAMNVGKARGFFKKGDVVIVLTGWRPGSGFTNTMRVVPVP

With `O=C(c1cc(Br)n[nH]1)N(Cc1cccc2[nH]cnc12)CC1CCC1` [Example 120, N-((1H-benzo[d]imidazol-4-yl)methyl)-3-bromo-N-(cyclobutylmethyl)-1H-pyrazole-5-carboxamide] the “Max. Resp.” value was 100% and the AC50 (read-out: PKM2 AC50, 2 nM PKM2, 75 μM ADP, 15 μM PEP, Kinase Glo) was 1.33 µM.

In the case of `O=C(c1cc(C(F)(F)F)n[nH]1)N(Cc1cccc2[nH]cnc12)CC1CCC1` [Example 123, N-((1H-benzo[d]imidazol-4-yl)methyl)-N-(cyclobutylmethyl)-3-(trifluoromethyl)-1H-pyrazole-5-carboxamide], the “Max. Resp.” value is reported as 100%.

With `O=C(c1cc(C(F)(F)F)n[nH]1)N(Cc1ccc(O)cc1Cl)CC1CCC1` [Example 124, N-(2-chloro-4-hydroxybenzyl)-N-(cyclobutylmethyl)-3-(trifluoromethyl)-1H-pyrazole-5-carboxamide] the “Max. Resp.” value was 100%.

With `O=C(c1cc(Br)n[nH]1)N(Cc1ccc(O)cc1Cl)CC1CCC1` [Example 125, N-(2-chloro-4-hydroxybenzyl)-3-bromo-N-(cyclobutylmethyl)-1H-pyrazole-5-carboxamide] the “Max. Resp.” value was 100%.

For `O=C(c1cc(C(F)(F)F)n[nH]1)N(Cc1ccccc1Cl)CC1CCC1` [Example 127, N-(2-chlorobenzyl)-N-(cyclobutylmethyl)-3-(trifluoromethyl)-1H-pyrazole-5-carboxamide], the “Max. Resp.” value was 100%.

`O=C(c1cc(C(F)(F)F)n[nH]1)N(Cc1ccncc1Cl)CC1CCC1` [Example 128, N-((3-chloropyridin-4-yl)methyl)-N-(cyclobutylmethyl)-3-(trifluoromethyl)-1H-pyrazole-5-carboxamide] was tested, and the “Max. Resp.” value was 75%.

`O=C(c1cc(C(F)(F)F)n[nH]1)N(CCC(F)(F)F)Cc1ccc(O)cc1F` [Example 130, N-(2-fluoro-4-hydroxybenzyl)-3-(trifluoromethyl)-N-(3,3, trifluoropropyl)-1H-pyrazole-5-carboxamide] was tested, and the “Max. Resp.” value was 100%.

With `CC(C)(O)CCN(Cc1ccc(O)cc1F)C(=O)c1cc(C(F)(F)F)n[nH]1` [Example 131, N-(2-fluoro-4-hydroxybenzyl)-3-(trifluoromethyl)-N-(3-hydroxy-3-methylbutyl)-1H-pyrazole-5-carboxamide] the AC50 was 23 µM.

`O=C(c1cc(C(F)(F)F)n[nH]1)N(Cc1ccc(O)cc1F)C1CCCC1` [Example 132, N-(2-fluoro-4-hydroxybenzyl)-N-cyclopentyl-3-(trifluoromethyl)-1H-pyrazole-5-carboxamide] was tested, and the “Max. Resp.” value was 100%.

In the case of `NCCN(Cc1ccc(O)cc1F)C(=O)c1cc(C(F)(F)F)n[nH]1` [Example 133, N-(2-fluoro-4-hydroxybenzyl)-N-(2-aminoethyl)-3-(trifluoromethyl)-1H-pyrazole-5-carboxamide], the “Max. Resp.” value is reported as 100%.

`Nc1ccc(CN(CC2CCC2)C(=O)c2cc(C(F)(F)F)n[nH]2)c(Cl)c1` [Example 134, N-(4-amino-2-chlorobenzyl)-N-(cyclobutylmethyl)-3-(trifluoromethyl)-1H-pyrazole-5-carboxamide] was tested, and the “Max. Resp.” value was 100%.

For `O=C(c1cc(C(F)(F)F)n[nH]1)N(Cc1cccc2[nH]ccc12)NC1CCC1` [Example 135, N-((1H-INDOL-4-YL)METHYL)-N′-CYCLOBUTYL-3-(TRIFLUOROMETHYL)-1H-PYRAZOLE-5-CARBOHYDRAZIDE], the “Max. Resp.” value was 100%.

In the case of `O=C(c1cc(C(F)(F)F)n[nH]1)N(Cc1cccc(F)c1O)CC1CCC1` [Example 136, N-(3-fluoro-2-hydroxybenzyl)-N-(cyclobutylmethyl)-3-(trifluoromethyl)-1H-pyrazole-5-carboxamide], the “Max. Resp.” value is reported as 100%.

In the case of `O=C(c1cc(C(F)(F)F)n[nH]1)N(CCO)Cc1ccc(O)cc1F` [Example 137, N-(2-fluoro-4-hydroxybenzyl)-3-(trifluoromethyl)-N-(2-hydroxyethyl)-1H-pyrazole-5-carboxamide], the “Max. Resp.” value is reported as 70%.

For `O=C(c1cc(C(F)(F)F)n[nH]1)N(Cc1ccc(O)cc1F)C1CCCCC1` [Example 139, N-(2-fluoro-4-hydroxybenzyl)-N-cyclohexyl-3-(trifluoromethyl)-1H-pyrazole-5-carboxamide], the “Max. Resp.” value was 100%.

With `O=C(c1cc(C(F)(F)F)n[nH]1)N(CCC1CC1)Cc1ccc(O)cc1F` [Example 140, N-(2-fluoro-4-hydroxybenzyl)-N-(2-cyclopropylethyl)-3-(trifluoromethyl)-1H-pyrazole-5-carboxamide] the “Max. Resp.” value was 100%.

In the case of `O=C(c1cc(C(F)(F)F)n[nH]1)N(Cc1cccc(Cl)c1O)CC1CCC1` [Example 141, N-(3-chloro-2-hydroxybenzyl)-N-(cyclobutylmethyl)-3-(trifluoromethyl)-1H-pyrazole-5-carboxamide], the “Max. Resp.” value is reported as 100%.

For `COCCN(Cc1ccc(O)cc1F)C(=O)c1cc(C(F)(F)F)n[nH]1` [Example 142, N-(2-fluoro-4-hydroxybenzyl)-3-(trifluoromethyl)-N-(2-methoxyethyl)-1H-pyrazole-5-carboxamide], the “Max. Resp.” value was 100%.

With `CCN(CC)CCN(Cc1ccc(O)cc1F)C(=O)c1cc(C(F)(F)F)n[nH]1` [Example 143, N-(2-fluoro-4-hydroxybenzyl)-N-(2-(diethylamino)ethyl)-3-(trifluoromethyl)-1H-pyrazole-5-carboxamide] the “Max. Resp.” value was 100%.

For `CCN(CC)CCN(Cc1ccccc1F)C(=O)c1cc(C(F)(F)F)n[nH]1` [Example 148, N-(2-fluorobenzyl)-N-(2-(diethylamino)ethyl)-3-(trifluoromethyl)-1H-pyrazole-5-carboxamide], the “Max. Resp.” value was 100%.

`O=C(c1cc(C(F)(F)F)n[nH]1)N(CCC1CC1)Cc1ccccc1F` [Example 149, N-(2-fluorobenzyl)-N-(2-cyclopropylethyl)-3-(trifluoromethyl)-1H-pyrazole-5-carboxamide] was tested, and the “Max. Resp.” value was 100%.

For `O=C(c1cc(C(F)(F)F)n[nH]1)N(Cc1ccccc1F)CC1CCOC1` (centres unmarked) [Example 150, N-(2-fluorobenzyl)-3-(trifluoromethyl)-N-((tetrahydrofuran-3-yl)methyl)-1H-pyrazole-5-carboxamide], the “Max. Resp.” value was 68%.

In the case of `CCN1CCC(N(Cc2ccccc2F)C(=O)c2cc(C(F)(F)F)n[nH]2)C1` (centres unmarked) [Example 152, N-(2-fluorobenzyl)-N-(1-ethylpyrrolidin-3-yl)-3-(trifluoromethyl)-1H-pyrazole-5-carboxamide], the “Max. Resp.” value is reported as 68%.

`O=C(c1cc(C(F)(F)F)n[nH]1)N(Cc1ccccc1F)C1CCCCC1` [Example 153, N-(2-fluorobenzyl)-N-cyclohexyl-3-(trifluoromethyl)-1H-pyrazole-5-carboxamide] was tested, and the “Max. Resp.” value was 57%.

For `CCN(CC)CCN(Cc1cccc(N)c1)C(=O)c1cc(C(F)(F)F)n[nH]1` [Example 154, N-(3-aminobenzyl)-N-(2-(diethylamino)ethyl)-3-(trifluoromethyl)-1H-pyrazole-5-carboxamide], the “Max. Resp.” value was 100%.

With `CCNCCN(Cc1ccccc1F)C(=O)c1cc(C(F)(F)F)n[nH]1` [Example 155, N-(2-fluorobenzyl)-N-(2-(ethylamino)ethyl)-3-(trifluoromethyl)-1H-pyrazole-5-carboxamide] the “Max. Resp.” value was 100%.

In the case of `O=C(c1cc(C(F)(F)F)n[nH]1)N(CCN1CCCC1)Cc1ccccc1F` [Example 158, N-(2-fluorobenzyl)-3-(trifluoromethyl)-N-(2-(pyrrolidin-1-yl)ethyl)-1H-pyrazole-5-carboxamide], the “Max. Resp.” value is reported as 100%.

For `CCN(CC)CCN(Cc1ccccc1Cl)C(=O)c1cc(C(F)(F)F)n[nH]1` [Example 159, N-(2-chlorobenzyl)-N-(2-(diethylamino)ethyl)-3-(trifluoromethyl)-1H-pyrazole-5-carboxamide], the “Max. Resp.” value was 100%.
